Test results published in US20230076527A1, “TREATMENT OF PAROXYSMAL NOCTURNAL HEMOGLOBINURIA” (Apellis Pharmaceuticals, Inc., priority 2020, published 2023).
Several values for one entry are separate records, joined by “and”; a condition that tells them apart may be missing. Equal entries are not always repeated.

Key:
patients with PNH [1] = assay: PEGASUS Phase 3 trial, 16-week randomized controlled period: hematologic and fatigue efficacy endpoints; type: in vivo, human; details: for non-inferiority to eculizumab on absolute reticulocyte count / non-inferiority to eculizumab on transfusion avoidance: key secondary endpoint; for non-inferiority to eculizumab on absolute reticulocyte count: margin 10; for non-inferiority to eculizumab on transfusion avoidance: margin -20%
Description: The PEGASUS trial protocol consisted of an 8-week screening period, a 52-week treatment period, and a 12-week follow up period.
The treatment period consisted of three parts: a 4-week run-in period, a 16-week Randomized Controlled Period and a 32-week open-label Study Drug only period.
During the Randomized Controlled Period, subjects returned to the clinical site at Weeks 1, 2, 4, 6, 8, 12 and 16 for efficacy and safety assessments.
The primary endpoint in the study was an increase in hemoglobin level from baseline to Week 16 (excluding data before the Randomized Controlled Period). Key secondary endpoints included transfusion avoidance, reduction in reticulocyte count, reduction in LDH level, and changes in Functional Assessment of Chronic Illness Therapy (FACIT)-fatigue scale score, Version 4. […] Hierarchical significance testing for secondary efficacy endpoints was gated on the success of the primary efficacy endpoint. Post hoc analyses included hemoglobin stabilization (defined as avoidance of a >1 g/dL decrease from baseline) in the absence of transfusions and hematologic response to treatment.
The between-treatment group comparison for the primary efficacy endpoint was performed using a mixed effect model for repeated measures (MMRM) (Mallinckrodt, DID 42:30 (2008)). The model included fixed categorical effects for treatment group, study visit, stratification variables (based on transfusion history and platelet count) and the study visit-bytreatment group interaction, as well as the continuous, fixed covariate of baseline Hb level.
The number and percentage of subjects with transfusion avoidance were tabulated by treatment group and compared between treatment groups using a stratified Cochran-Mantel Haenszel (CMH) chi-square test. The treatment difference in percentages and 95% confidence interval for the difference were presented using the stratified method (Miettinen, Statistics in Medicine 4:213-226 (1985)).
The change from baseline at Week 16 in reticulocyte count, LDH level and FACIT-fatigue scale score were analyzed using the same methods described for the primary analysis of the primary efficacy endpoint except using their own baseline as a covariate, using the ITT and mITT sets.
For any subject who discontinued study treatment, any values collected after discontinuation continued to be used in analyses (Treatment Policy).
Additionally, the primary endpoint of hemoglobin change from baseline (before first dose of pegcetacoplan) to week 16 and secondary endpoints (transfusion avoidance, change from baseline at week 16 in absolute reticulocyte count and lactate dehydrogenase) were analyzed by subgroups based on number of packed red blood cell transfusions (<4 vs ≥4) within the 12 months prior to Day -28 and platelet count at screening (<100,000 /mm^3 vs >100,000 /mm^3).

patients with PNH [2] = assay: PEGASUS quality of life assessments (LASA, EORTC QLQ-C30); type: in vivo, human
Procedure: QoL assessments were Linear Analog Scale Assessment (LASA) and the European Organisation for Research and Treatment of Cancer Quality of Life Questionnaire-Core 30 Scale (EORTC QLQ-C30) scores. Change from baseline (CFB) to week 16 was analyzed using a mixed model for repeated measures. The LASA consists of 3 sections asking respondents to rate their perceived level of functioning and contains specific domains for activity level, ability to carry out daily activities, and overall QoL. Each section of the LASA is scored from low of 0 to high of 100 and asks patients to rate different aspects of their life over the past week; section 1 asks patients to rate their energy level, section 2 their ability to do daily activities, section 3 their overall quality of life. Scores for the 3 individual components of the scale and the combined score were included in the analysis. The EORTC contains 30 questions comprising 5 functional scale scores and individual items; it asks patients to answer 28 questions on a scale of 1 (“not at all”) to 4 (“very much”) that generally focus on the past week of their life. An additional 2 questions are rated on a scale of 1 (“very poor”) to 7 (“excellent”) for overall health and quality of life over the past week.

patients with PNH [3] = details: in vivo
Procedure: Pharmacokinetics and pharmacodynamics were also assessed, including change from baseline in percentage of PNH Type II + III RBCs at week 16, and change from baseline in percentage of PNH Type II + III RBCs opsonized with C3 at week 16. Incidence and severity of treatment-emergent adverse events (TEAEs), incidence of thromboembolic events, changes from baseline in laboratory parameters, and changes from baseline in electrocardiogram (ECG) parameters were also assessed.
The primary endpoint was assessed on ITT set (included all subjects who were randomized), and change from Baseline to Week 16 in Hb level was measured. […] Safety Analysis was conducted in the safety set (which included all subjects who were randomized and received at least 1 dose of monotherapy Study Drug).
Subjects were divided into various sets. The Run-in Set included all subjects who received at least one dose of APL-2. The Intent-to-Treat (ITT) Set included all subjects who were randomized. The analyses using this set was based upon the randomized treatment group allocated. The Safety Set included all subjects who were randomized and received at least 1 dose of monotherapy Study Drug. This set was used for safety analyses. The analyses using this set were based upon the actual treatment received. The Modified ITT (mITT) Set included all subjects in the ITT set who received at least one dose of monotherapy beyond their Week 4 after randomization in the Randomized Controlled Period. The analyses using this set were based upon the randomized treatment group allocated. […] Subjects were required to receive their randomized treatment to be included in the set and so analyses using this set were by default based upon the actual treatment group allocated. The Completer Set consisted of all subjects in the ITT set who completed the Week 16 efficacy assessment for the study. The analyses using this set were based upon the randomized treatment group allocated.

[4] = week 16, <4 transfusions stratum
[5] = week 16, <100,000 /mm^3 platelet stratum
[6] = week 16, censored for transfusion
[7] = week 16, ≥4 transfusions stratum
[8] = week 16, ≥100,000 /mm^3 platelet stratum
[9] = change from baseline at week 16, ITT
[10] = change from baseline at week 16, ITT, listed as Pegcetacoplan
[11] = week 16, ITT, negative = improvement

## Poly(oxy-1,2-ethanediyl), α-hydro-ω-hydroxy-, 15,15ʹ -diester with N-acetyl-L-isoleucyl-L-cysteinyl-L-valyl-1-methyl-L-tryptophyl-L-glutaminyl-L-α-aspartyl-L-tryptophylglycyl-L-alanyl-L-histidyl-L-arginyl-L-cysteinyl-L-threonyl-2-[2-(2-aminoethoxy)ethoxy]acetyl-N^6-carboxy-L-lysinamide cyclic (2-->12)-(disulfide) [pegcetacoplan]
Patients with PNH [1]; 16 weeks
  patients achieving at least a three-point improvement in FACIT-fatigue score: 73%
Patients with PNH [1]; 16 weeks, 30-120 × 10^9 cells/L
  patients achieving reticulocyte normalization: 78%
Patients with PNH [1]; 16 weeks, normal range 113-226 U/L
  patients achieving LDH normalization: 71%
Patients with PNH [1]; <4 transfusions group, 95% CI 26.2%-81.3%
  transfusion avoidance, adjusted risk difference versus eculizumab: 53.8%
Patients with PNH [1]; MMRM
  FACIT-fatigue score, adjusted mean change from baseline to Week 16: 9.2
Patients with PNH [1]; baseline 217×10^9 /L
  absolute reticulocyte count, adjusted mean decrease from baseline to week 16: 1.35e+11 L⁻¹
Patients with PNH [1]
  non-inferiority to eculizumab on absolute reticulocyte count: Non-inferiority was met
  non-inferiority to eculizumab on transfusion avoidance: Non-inferiority was met
Patients with PNH [1]; listed as Pegcetacoplan
  non-inferiority to eculizumab on absolute reticulocyte count: met non-inferiority
  non-inferiority to eculizumab on transfusion avoidance: met non-inferiority
Patients with PNH [1]; out of 41 (pegcetacoplan group), out of 39 (eculizumab group)
  subjects who required transfusions post randomization: 6 subjects
Patients with PNH [1]; over 16 weeks, <4 transfusions within 12 months prior to Day -28
  proportion of transfusion-free patients: 85%
Patients with PNH [1]; over 16 weeks, all patients
  transfusion avoidance (transfusion-free patients): 85.4% and 85%
Patients with PNH [1]; over 16 weeks, platelet stratum <100,000 /mm^3
  proportion of transfusion-free patients: 83.3%
Patients with PNH [1]; over 16 weeks, platelet stratum ≥100,000 /mm^3
  proportion of transfusion-free patients: 86.2%
Patients with PNH [1]; over 16 weeks, ≥4 transfusions within 12 months prior to Day -28
  proportion of transfusion-free patients: 85.7% and 86%
Patients with PNH [1]; overall patients, 95% CI 48.3%-76.8%
  transfusion avoidance, adjusted risk difference versus eculizumab: 62.5%
Patients with PNH [1]; week 16
  hemoglobin higher than the eculizumab arm: 53%
  mean hemoglobin change from baseline regardless of baseline platelet count strata: significantly increased
Patients with PNH [1]; [4]
  LDH LS mean change from baseline: -52.31 U/L
  absolute reticulocyte count LS mean change from baseline: -152.59 × 10^9 cells/L
Patients with PNH [1]; [5]
  LDH LS mean change from baseline: -73.14 U/L
  absolute reticulocyte count LS mean change from baseline: -147.17 × 10^9 cells/L
Patients with PNH [1]; week 16, all patients, baseline 8.7 g/dL, post-transfusion data excluded
  adjusted mean hemoglobin change from baseline: 2.4 g/dL
Patients with PNH [1]; [6]
  proportion of patients achieving hemoglobin normalization: 34%
  proportion of patients achieving ≥2 g/dL improvement in hemoglobin: 61%
Patients with PNH [1]; week 16, censored for transfusion, avoidance of >1 g/dL decrease from baseline
  proportion of patients achieving hemoglobin stabilization: 85%
Patients with PNH [1]; week 16, fewer than 4 transfusions within 12 months prior to Day -28, baseline 8.9 g/dL
  adjusted mean hemoglobin change from baseline: 2.97 g/dL
Patients with PNH [1]; week 16, including post-transfusion data
  indirect bilirubin level: 13.8 µmol/L
Patients with PNH [1]; week 16, margin 20
  non-inferiority to eculizumab in the change from baseline in LDH: did not demonstrate non-inferiority
Patients with PNH [1]; week 16, observed data, baseline 32.2 (pegcetacoplan), 31.6 (eculizumab)
  mean FACIT-fatigue score: 41.8 (SD 9.61)
Patients with PNH [1]; week 16, p<0.0001, MMRM
  improvement in adjusted means of hemoglobin versus eculizumab: 3.8 g/dL
Patients with PNH [1]; [7]
  LDH LS mean change from baseline: -54.99 U/L
  absolute reticulocyte count LS mean change from baseline: -124.75 × 10^9 cells/L
Patients with PNH [1]; [8]
  LDH LS mean change from baseline: -41.96 U/L
  absolute reticulocyte count LS mean change from baseline: -137.28 × 10^9 cells/L
Patients with PNH [1]; week 16, baseline 258 U/L (pegcetacoplan), 309 U/L (eculizumab)
  LDH adjusted mean change from baseline: -15 U/L
Patients with PNH [1]; ≥4 transfusions group, 95% CI 64.2%-98.5%
  transfusion avoidance, adjusted risk difference versus eculizumab: 81.4%
Patients with PNH [2]; [9]
  Appetite loss, Difference (95% CI) in LS mean, pegcetacoplan vs eculizumab: -8.0 (-23.2, 7.3)
  Cognitive functioning, Difference (95% CI) in LS mean, pegcetacoplan vs eculizumab: 9.6 (-4.5, 23.6)
  Constipation, Difference (95% CI) in LS mean, pegcetacoplan vs eculizumab: 1.8 (-15.7, 19.3)
  Diarrhea, Difference (95% CI) in LS mean, pegcetacoplan vs eculizumab: -1.4 (-19.3, 16.5)
  Dyspnea, Difference (95% CI) in LS mean, pegcetacoplan vs eculizumab: -14.6
  Emotional functioning, Difference (95% CI) in LS mean, pegcetacoplan vs eculizumab: 4.1 (-11.6, 19.8)
  Fatigue symptom scale, Difference (95% CI) in LS mean, pegcetacoplan vs eculizumab: -20.7
  Financial difficulties, Difference (95% CI) in LS mean, pegcetacoplan vs eculizumab: -7.4 (-21.8, 7.0)
  Global Health Status/QoL, Difference (95% CI) in LS mean, pegcetacoplan vs eculizumab: 18.6 (0.1, 37.1)
  Insomnia, Difference (95% CI) in LS mean, pegcetacoplan vs eculizumab: 0.3 (-15.7, 16.3)
  Nausea and vomiting, Difference (95% CI) in LS mean, pegcetacoplan vs eculizumab: -0.0 (-8.4, 8.4)
  Pain, Difference (95% CI) in LS mean, pegcetacoplan vs eculizumab: -2.8 (-20.4, 14.9)
  Physical functioning, Difference (95% CI) in LS mean, pegcetacoplan vs eculizumab: 12.9 (4.9, 20.9)
  Role functioning, Difference (95% CI) in LS mean, pegcetacoplan vs eculizumab: 24.4 (8.8, 40.0)
  Social functioning, Difference (95% CI) in LS mean, pegcetacoplan vs eculizumab: 11.3 (-2.4, 24.9)
Patients with PNH [2]; change from baseline at week 16, ITT, censored for transfusion
  LASA score, Difference (95% CI) in LS mean, pegcetacoplan vs eculizumab: 59.10
Patients with PNH [2]; change from baseline at week 16, ITT, censored for transfusion, listed as Pegcetacoplan
  LASA score, Difference (95% CI) in LS mean, pegcetacoplan vs eculizumab: 59.1 (16.9, 101.3)
Patients with PNH [2]; [10]
  Dyspnea, Difference (95% CI) in LS mean, pegcetacoplan vs eculizumab: -14.6 (-29.9, 0.8)
  Fatigue symptom scale, Difference (95% CI) in LS mean, pegcetacoplan vs eculizumab: -20.7 (-35.3, -6.2)
Patients with PNH [2]; week 16, ITT
  EORTC QLQ-C30 Cognitive functioning, LS mean (SE) change from baseline: 5.8 (3.3)
  EORTC QLQ-C30 Emotional functioning, LS mean (SE) change from baseline: 8.0 (3.4)
  EORTC QLQ-C30 Global Health Status/QoL, LS mean (SE) change from baseline: 15.9 (3.6)
  EORTC QLQ-C30 Physical functioning, LS mean (SE) change from baseline: 16.9 (2.1)
  EORTC QLQ-C30 Role functioning, LS mean (SE) change from baseline: 15.4 (3.9)
  EORTC QLQ-C30 Social functioning, LS mean (SE) change from baseline: 15.1 (2.9)
Patients with PNH [2]; week 16, ITT, censored for transfusion
  LASA score, LS mean (SE) change from baseline: 49.4 (10.2)
Patients with PNH [2]; [11]
  EORTC QLQ-C30 Appetite loss, LS mean (SE) change from baseline: -3.8 (3.4)
  EORTC QLQ-C30 Constipation, LS mean (SE) change from baseline: 3.0 (3.2)
  EORTC QLQ-C30 Diarrhea, LS mean (SE) change from baseline: 0.3 (3.7)
  EORTC QLQ-C30 Dyspnea, LS mean (SE) change from baseline: -20.1 (3.5)
  EORTC QLQ-C30 Fatigue symptom scale, LS mean (SE) change from baseline: -22.9 (3.3)
  EORTC QLQ-C30 Financial difficulties, LS mean (SE) change from baseline: -6.8 (3.9)
  EORTC QLQ-C30 Insomnia, LS mean (SE) change from baseline: -9.2 (4.0)
  EORTC QLQ-C30 Nausea and vomiting, LS mean (SE) change from baseline: -0.3 (1.6)
  EORTC QLQ-C30 Pain, LS mean (SE) change from baseline: -0.7 (4.3)
Patients with PNH [3]
  All Infections: 12 (29.3) n(%)
  Sepsis: 0 n(%)
